Test results: US12655116B2, “Substituted isophthalic acid diamides” (Bayer Aktiengesellschaft, priority 2020, dated 2026)

Legend:
AMARE [1] = experiment: Post-emergence herbicidal action against AMARE; assay type: in vivo, Amaranthus retroflexus; conditions: 20 g/ha, visual assessment about 3 weeks after treatment, 100% = plants have died, 0% = like control plants
How it was run: (§1)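 Post-emergence greenhouse test; one-leaf stage, 2–3 wk post-sowing, sandy loam. Foliar spray of WP/EC in water, 600–800 l/ha, +0.2% wetting agent. Visual % action at ~3 wk vs untreated (100% = plants dead).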

ALOMY [2] = experiment: Pre-emergence herbicidal action against ALOMY; assay type: in vivo, Alopecurus myosuroides; conditions: 80 g/ha, pre-emergence, scored visually after 3 weeks vs untreated controls (100% = plants have died, 0% = like control plants)
How it was run: (§2)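 Herbicidal effect was assessed 3 weeks after treatment by visual comparison with untreated controls, 100% denoting dead plants. Aqueous WP or EC preparations had been applied at 600 to 800 l/ha with 0.2% wetting agent to the soil covering freshly sown seeds.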

ALOMY [3] = experiment: Post-emergence herbicidal action against ALOMY; assay type: in vivo, Alopecurus myosuroides; conditions: dosage 20 g/ha, visual assessment about 3 weeks after treatment vs untreated controls
How it was run: as §1

ABUTH [4] = experiment: Pre-emergence herbicidal action against ABUTH; assay type: in vivo, Abutilon theophrasti
How it was run: as §2

POLCO = experiment: Pre-emergence herbicidal action against POLCO; assay type: in vivo, Polygonum convolvulus
Description: Seeds of monocotyledonous and dicotyledonous weed plants and crop plants are laid out in sandy loam soil in wood-fiber pots and covered with soil. The compounds of the invention, formulated in the form of wettable powders (WP) or as emulsion concentrates (EC), are then applied to the surface of the covering soil in the form of an aqueous suspension or emulsion at a water application rate equivalent to 600 to 800 l/ha, with addition of 0.2% wetting agent. After the treatment, the pots are placed in a greenhouse and kept under good growth conditions for the trial plants. The damage to the test plants is scored visually after a test period of 3 weeks by comparison with untreated controls (herbicidal activity in percent (%): 100% activity=the plants have died, 0% activity=like control plants). […] The tables below illustrate, in an illustrative manner, the post-emergence herbicidal action of the compounds of the invention, the herbicidal activity being stated in percent.

SETVI [5] = experiment: Pre-emergence herbicidal action against SETVI; assay type: in vivo, Setaria viridis
How it was run: as §2

VIOTR [6] = experiment: Post-emergence herbicidal action against VIOTR; assay type: in vivo, Viola tricolor; conditions: 20 g/ha
How it was run: as §1

MATIN = experiment: Pre-emergence herbicidal action against MATIN; assay type: in vivo, Matricaria inodora
How it was run: as §2

ABUTH [7] = experiment: Post-emergence herbicidal action against ABUTH; assay type: in vivo, Abutilon theophrasti; conditions: visual assessment about 3 weeks after treatment vs untreated controls
How it was run: as §1

SETVI [8] = experiment: Post-emergence herbicidal action against SETVI; assay type: in vivo, Setaria viridis; conditions: dosage 20 g/ha
How it was run: as §1

AMARE [9] = experiment: Pre-emergence herbicidal action against AMARE; assay type: in vivo, Amaranthus retroflexus
How it was run: as §2

VERPE [10] = experiment: Post-emergence herbicidal action against VERPE; assay type: in vivo, Veronica persica; conditions: Veronica persica, 504 h, 20 g/ha
How it was run: as §1

AVEFA = experiment: Pre-emergence herbicidal action against AVEFA; assay type: in vivo, Avena fatua; conditions: 80 g/ha, pre-emergence
How it was run: as §2

PHBPU = experiment: Post-emergence herbicidal action against PHBPU; assay type: in vivo, Pharbitis purpurea
How it was run: as §1

VERPE [11] = experiment: Pre-emergence herbicidal action against VERPE; assay type: in vivo, Veronica persica; conditions: dosage 80 g/ha
How it was run: as §2

DIGSA [12] = experiment: Pre-emergence herbicidal action against DIGSA; assay type: in vivo, Digitaria sanguinalis
How it was run: as §2

ECHCG [13] = experiment: Pre-emergence herbicidal action against ECHCG; assay type: in vivo, Echinochloa crus-galli; conditions: 80 g/ha
How it was run: as §2

VIOTR [14] = experiment: Pre-emergence herbicidal action against VIOTR; assay type: in vivo, Viola tricolor
How it was run: as §2

ECHCG [15] = experiment: Post-emergence herbicidal action against ECHCG; assay type: in vivo, Echinochloa crus-galli
How it was run: as §1

DIGSA [16] = experiment: Post-emergence herbicidal action against DIGSA; assay type: in vivo, Digitaria sanguinalis; conditions: 20 g/ha
How it was run: as §1

[17] = 80 g/ha, scored visually after 3 weeks vs untreated controls (100% = plants have died, 0% = like control plants)
[18] = 20 g/ha, scored visually after 3 weeks vs untreated controls, 100% = plants have died, 0% = like control plants

CNC(=O)c1c(OC)ccc(C(=O)Nc2nnnn2C)c1Cl [Example 1-354]
pest or weed control at 20 g/ha (AMARE [1]; Amaranthus retroflexus, 504 h): 100%
pest or weed control at 80 g/ha (ALOMY [2]; Alopecurus myosuroides, 504 h): 80%
pest or weed control at 20 g/ha (ALOMY [3]; Alopecurus myosuroides, 504 h): 80%
pest or weed control at 80 g/ha (ABUTH [4]; Abutilon theophrasti, 504 h, 80 g/ha, scored visually after 3 weeks vs untreated controls (100% = plants have died, 0% = like control plants)): 100%
pest or weed control at 80 g/ha (POLCO; Fallopia convolvulus, 504 h, dosage 80 g/ha): 80%
pest or weed control at 80 g/ha (SETVI [5]; Setaria viridis, 504 h, dosage 80 g/ha): 90%
pest or weed control at 20 g/ha (VIOTR [6]; Viola tricolor, 504 h): 90%
pest or weed control at 20 g/ha (MATIN; Tripleurospermum inodorum, 504 h, dosage 20 g/ha): 80%
pest or weed control at 80 g/ha (MATIN; Tripleurospermum inodorum, 504 h, dosage 80 g/ha): 80%
pest or weed control at 5 g/ha (ABUTH [7]; Abutilon theophrasti, 504 h, dosage 5 g/ha): 90%
pest or weed control at 20 g/ha (ABUTH [7]; Abutilon theophrasti, 504 h, dosage 20 g/ha): 100%
pest or weed control at 20 g/ha (SETVI [8]; Setaria viridis, 504 h): 100%
pest or weed control at 80 g/ha (AMARE [9]; Amaranthus retroflexus, 504 h, 80 g/ha, scored visually after 3 weeks vs untreated controls, 100% = plants have died, 0% = like control plants): 100%
pest or weed control at 20 g/ha (VERPE [10]): 90%

Cn1nnnc1NC(=O)c1ccc(Br)c(C(=O)NCC2CC2)c1Cl [Example 1-180]
Pre-emergence action against ALOMY (herbicidal activity) (ALOMY [2]): 100%
Pre-emergence action against AVEFA in % (AVEFA): 80%
Post-emergence action against PHBPU in % (PHBPU; dosage 5 g/ha): 90%
Post-emergence action against PHBPU in % (PHBPU; dosage 20 g/ha): 90%
Pre-emergence action against ABUTH (herbicidal activity) (ABUTH [4]; [17]): 100%
Pre-emergence action against ABUTH (herbicidal activity in percent) (ABUTH [4]; dosage 20 g/ha, scored visually after 3 weeks vs untreated controls, 100% = plants have died, 0% = like control plants): 90%
Pre-emergence action against POLCO in % (POLCO; dosage 80 g/ha): 100%
Pre-emergence action against VERPE in % (VERPE [11]): 80%
Pre-emergence action against DIGSA in % (DIGSA [12]; dosage 20 g/ha): 100%
Pre-emergence action against DIGSA in % (DIGSA [12]; dosage 80 g/ha): 100%
Pre-emergence action against ECHCG in % (ECHCG [13]): 100%
Pre-emergence action against SETVI in % (SETVI [5]; dosage 80 g/ha): 90%
Post-emergence action against VIOTR in % (VIOTR [6]): 90%
Pre-emergence action against MATIN in % (MATIN; dosage 20 g/ha): 90%
Pre-emergence action against MATIN in % (MATIN; dosage 80 g/ha): 100%
Pre-emergence action against VIOTR in % (VIOTR [14]; dosage 20 g/ha): 80%
Pre-emergence action against VIOTR in % (VIOTR [14]; dosage 80 g/ha): 100%
Pre-emergence action against AMARE in % (AMARE [9]; [18]): 100%
Pre-emergence action against AMARE in % (AMARE [9]; [17]): 100%

CCNC(=O)c1c(C(F)F)ccc(C(=O)Nc2nnc(C)o2)c1Br [Example 6-165]
Post-emergence action at 20 g/ha against AMARE in % (AMARE [1]): 80%
Pre-emergence action against ALOMY (herbicidal activity) (ALOMY [2]): 80%
Post-emergence action against ECHCG in % (ECHCG [15]; dosage 5 g/ha): 90%
Post-emergence action against ECHCG in % (ECHCG [15]; dosage 20 g/ha): 100%
Post-emergence action against ALOMY in % (ALOMY [3]): 80%
Pre-emergence action against ABUTH (herbicidal activity) (ABUTH [4]; [17]): 100%
Pre-emergence action against POLCO in % (POLCO; dosage 80 g/ha): 80%
Post-emergence action against DIGSA (DIGSA [16]): 90%
Pre-emergence action against DIGSA in % (DIGSA [12]; dosage 20 g/ha): 90%
Pre-emergence action against DIGSA in % (DIGSA [12]; dosage 80 g/ha): 100%
Pre-emergence action against ECHCG in % (ECHCG [13]): 100%
Pre-emergence action against SETVI in % (SETVI [5]; dosage 20 g/ha): 90%
Pre-emergence action against SETVI in % (SETVI [5]; dosage 80 g/ha): 100%
Post-emergence action against VIOTR in % (VIOTR [6]): 80%
Pre-emergence action against MATIN in % (MATIN; dosage 20 g/ha): 80%
Pre-emergence action against MATIN in % (MATIN; dosage 80 g/ha): 100%
Pre-emergence action against VIOTR in % (VIOTR [14]; dosage 20 g/ha): 80%
Pre-emergence action against VIOTR in % (VIOTR [14]; dosage 80 g/ha): 90%
Post-emergence action against ABUTH in % (ABUTH [7]; dosage 20 g/ha): 90%
Post-emergence action against SETVI in % (SETVI [8]): 80%
Pre-emergence action against AMARE in % (AMARE [9]; [18]): 100%
Pre-emergence action against AMARE in % (AMARE [9]; [17]): 100%

CCn1nnnc1NC(=O)c1ccc(C(F)(F)F)c(C(=O)NCc2cccs2)c1Cl [Example 2-144]
Post-emergence action against PHBPU in % (PHBPU; dosage 20 g/ha): 80%
Pre-emergence action against POLCO in % (POLCO; dosage 20 g/ha): 80%
Pre-emergence action against POLCO in % (POLCO; dosage 80 g/ha): 90%
Pre-emergence action against VERPE in % (VERPE [11]): 100%
Pre-emergence action against DIGSA in % (DIGSA [12]; dosage 80 g/ha): 100%
Pre-emergence action against ECHCG in % (ECHCG [13]): 80%
Pre-emergence action against MATIN in % (MATIN; dosage 80 g/ha): 90%
Pre-emergence action against VIOTR in % (VIOTR [14]; dosage 80 g/ha): 90%
Pre-emergence action against AMARE in % (AMARE [9]; [18]): 80%
Pre-emergence action against AMARE in % (AMARE [9]; [17]): 100%
